Measurements: article PMC10041537, “Molecular origins of mutational spectra produced by the environmental carcinogen N-nitrosodimethylamine and SN1 chemotherapeutic agents” (NAR Cancer, 2023)

Key:
liver, kidney, lung = experiment: Body and organ weights, macroscopic and histological analysis 10 weeks post NDMA treatment; type: in vivo, gptΔ C57BL/6J mice
Method: (§1) Most experiments utilized C57BL/6J gptΔ transgenic mice ([49],[50]), a gift from T. Nohmi. Some experiments used RaDR^R/R;gpt^g/g;Mgmt^−/− mice, which were created by crossing RaDR^R/R;gpt^g/gmice ([37]) with Mgmt^−/− mice ([51]). NDMA was synthesized and characterized as previously described ([52]) (Fig. S1). […] The first dose (3.5 mg/kg in 10 μl) was administered at 8 days of age, and the second dose (7 mg/kg in 20 μl) was administered at 15 days of age. Vehicle treated mice were administered equivalent volumes of saline. Mice were euthanized at ten weeks post-injection by CO2 inhalation. Both male and female mice were used in all experimental groups (n = 5) in all mouse experiments.
Sections of kidney and liver from mice ten weeks post treatment were fixed in 10% buffered formalin, embedded in paraffin, and sectioned at 5 μm thickness, stained with hematoxylin and eosin (H&E) by the MIT Division of Comparative Medicine Comparative Pathology Laboratory. H&E-stained sections of liver and kidney were scored by a Board-certified veterinary pathologist blinded to sample identity. Sections of liver were evaluated for the presence of hepatocellular degeneration (cell swelling with cytoplasmic alteration), fibrosis, and lipidosis using distribution-based ordinal scoring: 0 = normal, 1, uncommon detection in < 5% of liver fields (200×); 2, detectable in up to 5–20% of liver fields; 3, detectable in up to 20–65% of liver fields; 4, detectable in >65% of liver fields. The following criteria were used for scoring hepatic inflammation, necrosis, nuclear enlargement (karyomegaly), extramedullary hematopoiesis, Kupffer cell hyperplasia, Ito cell hyperplasia, and bile duct hyperplasia: 0 = normal; 1 = minimal (1–5 foci), 2 = mild (6–12 foci), 3 = moderate (13–18 foci), 4 = severe (>18 foci) (adapted from ([54])). A total inflammation score for each liver was generated by combining individual scores of portal, midzonal, and centrilobular inflammation from each submitted section. Sections of kidney were evaluated for the presence of inflammation, glomerulonephropathy, tubular necrosis, tubular degeneration, tubular regeneration, tubular casts and interstitial fibrosis. Slides were examined using an Olympus BX41 microscope attached with an iKona digital camera and photographed.

mouse genome = experiment: Duplex sequencing, high-resolution mutational spectra and pLOGO of liver of NDMA-treated Mgmt−/− mice; type: in vivo
Method: as §1
To determine the identity of mutations and the sequence contexts in which they occur, we utilized a form of error-corrected sequencing called duplex sequencing (DS). Previously, we described how DS can be used directly on genomic samples derived from the gptΔ mouse to yield high-resolution mutational spectra in an unbiased (unselected) manner ([49]). Unlike the traditional gptΔ assay, DS evaluates the mutations throughout the entire 6382 bp transgenic region (which contains the gpt gene), without the need for a phenotypic selection. In the present work, 6.4 kb gpt-containing plasmids from gptΔ mouse livers and cell culture were isolated using a Miniprep Kit (Qiagen) following instructions of the manufacturer. Approximately 6 μg of plasmid DNA was diluted in 1× TE buffer-low EDTA, pH 8 (Thermo Scientific), transferred to a microTUBE AFA Fiber Pre-Slit Snap-Cap (Covaris) and sonicated using a Covaris E220 Focused-ultrasonicator. The following program was used to obtain 300–350 bp fragments: peak incident power = 140 W, duty factor = 10%, cycles per burst = 200, treatment time = 80 s, temperature = 4–7°C. DS libraries for gptΔ C57BL/6J mice and MEFs were prepared using the NEBNext Ultra II DNA Library Prep (E7103, NEB) or as described in Chawanthayatham et al. ([49]) and sequenced on a NextSeq500 or NovaSeq 6000 Illumina platform by using a 150 bp paired-end protocol (MIT BioMicro Center). DS libraries for the gptΔ mouse lungs and Mgmt^−/− mice were prepared using an input of 1 μg or 500 ng genomic DNA, respectively, using a TwinStrand Biosciences, Inc. Mouse Mutagenesis Kit according to the manufacturer's protocol. This kit uses probes that hybridize to 20 genomic regions, each 2.4 kb long. The genomic coordinates are provided in Supplementary Table S1. These probes were purposely selected to map in intronic and intergenic regions, to avoid selection bias. The libraries were sequenced on an Illumina NovaSeq 6000 DNA sequencer on an S4 flow cell using a 150 bp paired-end protocol (MIT BioMicro Center).
For each sample, the two fastq files generated by the Illumina sequencer were converted into an unaligned bam file, using Picard Tools. The resulting bam file was processed using UnifiedConsensusMaker.py (version 3.0) as available from the Kennedy Lab at University of Washington (https://github.com/Kennedy-Lab-UW/Duplex-Sequencing). Briefly, this program queries the molecular tags on each read and assembles them into families (strands with the same tag). These are subsequently collapsed into single-strand consensus sequences (SSCS). Then, the software identifies the SSCS corresponding to the complementary strand; these are grouped together as a double-strand consensus sequence (DCS). Unpaired SSCSs were flagged and ignored for the rest of the analysis. Sequence information was accepted only when the information from the two complementary DNA strands was in perfect agreement. The DCSs (as fastq files) were subsequently aligned to the target region (6382 nt in the λ-EG10 genome) using Burrows-Wheeler aligner. Unmapped reads were filtered out. Finally, the properly aligned DCS reads were trimmed (bases 1–8 and 120–137) and collapsed into a pileup file using SamTools. […]

**Q.** How did the “macroscopic changes in organs” value (liver, kidney, lung; 10 weeks post treatment) turn out when `CN(C)N=O` [NDMA, N-nitrosodimethylamine] was run?
**A.** The value was “not observed”.

**Q.** And the “liver histology: hepatocellular degeneration” value (liver, kidney, lung; H&E, P = 0.0079)?
**A.** Its value is “multifocal areas of periacinar (centrilobular to midzonal) hepatocellular degeneration”.

**Q.** What about the “liver histology: nuclear enlargement” value (liver, kidney, lung; H&E, P = 0.0079) of the same compound?
**A.** Its value is “karyomegaly”.

**Q.** And the “body weights vs vehicle controls” value (liver, kidney, lung; at euthanasia, 10 weeks post treatment)?
**A.** Its value is “no difference”.

**Q.** What about the lung-to-body weight ratio (liver, kidney, lung; females) of the same compound?
**A.** The lung-to-body weight ratio was “increased”.

**Q.** And the kidney-to-body weight ratio (liver, kidney, lung; males)?
**A.** Its kidney-to-body weight ratio is “increased”.

**Q.** And the liver-to-body weight ratio (liver, kidney, lung; males)?
**A.** The liver-to-body weight ratio was “decreased significantly”.

**Q.** What about the “pLOGO Frequency (%)” value (mouse genome; A at 1, liver, Mgmt−/− mice) of the same compound?
**A.** The value was 31.4%.

**Q.** And the “pLOGO Value (log-odds binomial probability)” value (from here on “pLOGO Value”) (mouse genome; A at 1, liver, Mgmt−/− mice)?
**A.** The value was 47.10.

**Q.** What about the “pLOGO Frequency (%)” value (mouse genome; A at 2, liver, Mgmt−/− mice) of the same compound?
**A.** The value was 31.0%.

**Q.** What about the “pLOGO Value” value (mouse genome; A at 2, liver, Mgmt−/− mice) of the same compound?
**A.** The value was 26.02.

**Q.** What about the “pLOGO Frequency (%)” value (mouse genome; A at 3, liver, Mgmt−/− mice) of the same compound?
**A.** The value was 29.4%.

**Q.** And the “pLOGO Value” value (mouse genome; A at 3, liver, Mgmt−/− mice)?
**A.** The value was 12.99.

**Q.** What about the “pLOGO Frequency (%)” value (mouse genome; A at 5, liver, Mgmt−/− mice) of the same compound?
**A.** The value was 28.3%.

**Q.** What about the “pLOGO Value” value (mouse genome; A at 5, liver, Mgmt−/− mice) of the same compound?
**A.** Its value is 3.94.

**Q.** What about the “pLOGO Frequency (%)” value (mouse genome; A at -1, liver, Mgmt−/− mice) of the same compound?
**A.** Its value is 42.5%.

**Q.** What about the “pLOGO Value” value (mouse genome; A at -1, liver, Mgmt−/− mice) of the same compound?
**A.** Its value is 256.46.

**Q.** And the “pLOGO Frequency (%)” value (mouse genome; A at -2, liver, Mgmt−/− mice)?
**A.** The value was 32.8%.

**Q.** What about the “pLOGO Value” value (mouse genome; A at -2, liver, Mgmt−/− mice) of the same compound?
**A.** Its value is 29.44.

**Q.** What about the “pLOGO Frequency (%)” value (mouse genome; A at -3, liver, Mgmt−/− mice) of the same compound?
**A.** Its value is 29.2%.

**Q.** And the “pLOGO Value” value (mouse genome; A at -3, liver, Mgmt−/− mice)?
**A.** The value was 4.17.

**Q.** What about the “pLOGO Frequency (%)” value (mouse genome; C at 2, liver, Mgmt−/− mice) of the same compound?
**A.** The value was 24.5%.

**Q.** And the “pLOGO Value” value (mouse genome; C at 2, liver, Mgmt−/− mice)?
**A.** Its value is 22.44.

**Q.** What about the “pLOGO Frequency (%)” value (mouse genome; G at 4, liver, Mgmt−/− mice) of the same compound?
**A.** Its value is 23.1%.

**Q.** And the “pLOGO Value” value (mouse genome; G at 4, liver, Mgmt−/− mice)?
**A.** Its value is 13.22.

**Q.** And the “pLOGO Frequency (%)” value (mouse genome; G at 5, liver, Mgmt−/− mice)?
**A.** Its value is 22.8%.

**Q.** And the “pLOGO Value” value (mouse genome; G at 5, liver, Mgmt−/− mice)?
**A.** Its value is 3.76.

**Q.** And the “pLOGO Frequency (%)” value (mouse genome; G at 6, liver, Mgmt−/− mice)?
**A.** Its value is 24.8%.

**Q.** What about the “pLOGO Value” value (mouse genome; G at 6, liver, Mgmt−/− mice) of the same compound?
**A.** The value was 20.10.

**Q.** And the “pLOGO Frequency (%)” value (mouse genome; G at 7, liver, Mgmt−/− mice)?
**A.** Its value is 24.2%.

**Q.** And the “pLOGO Value” value (mouse genome; G at 7, liver, Mgmt−/− mice)?
**A.** Its value is 4.88.

**Q.** And the “pLOGO Frequency (%)” value (mouse genome; G at -1, liver, Mgmt−/− mice)?
**A.** The value was 41.6%.

**Q.** What about the “pLOGO Value” value (mouse genome; G at -1, liver, Mgmt−/− mice) of the same compound?
**A.** The value was 324.

**Q.** What about the “pLOGO Frequency (%)” value (mouse genome; G at -2, liver, Mgmt−/− mice) of the same compound?
**A.** The value was 24.3%.

**Q.** What about the “pLOGO Value” value (mouse genome; G at -2, liver, Mgmt−/− mice) of the same compound?
**A.** The value was 23.51.

**Q.** What about the “pLOGO Frequency (%)” value (mouse genome; G at -3, liver, Mgmt−/− mice) of the same compound?
**A.** Its value is 22.9%.

**Q.** What about the “pLOGO Value” value (mouse genome; G at -3, liver, Mgmt−/− mice) of the same compound?
**A.** Its value is 4.27.

**Q.** And the “pLOGO Frequency (%)” value (mouse genome; G at -4, liver, Mgmt−/− mice)?
**A.** The value was 22.6%.

**Q.** What about the “pLOGO Value” value (mouse genome; G at -4, liver, Mgmt−/− mice) of the same compound?
**A.** The value was 5.86.

**Q.** What about the “pLOGO Frequency (%)” value (mouse genome; G at -5, liver, Mgmt−/− mice) of the same compound?
**A.** Its value is 22.8%.

**Q.** And the “pLOGO Value” value (mouse genome; G at -5, liver, Mgmt−/− mice)?
**A.** Its value is 4.67.

**Q.** What about the “pLOGO Frequency (%)” value (mouse genome; G at -6, liver, Mgmt−/− mice) of the same compound?
**A.** The value was 23.9%.

**Q.** And the “pLOGO Value” value (mouse genome; G at -6, liver, Mgmt−/− mice)?
**A.** The value was 4.72.

**Q.** What about the “AT→GC mutations, proportion of mutations” value (mouse genome; Mgmt−/− mice) of the same compound?
**A.** The value was 1.7%.

**Q.** What about the “pLOGO Frequency (%)” value (mouse genome; T at -2, liver, Mgmt−/− mice) of the same compound?
**A.** Its value is 24.7%.

**Q.** What about the “pLOGO Value” value (mouse genome; T at -2, liver, Mgmt−/− mice) of the same compound?
**A.** Its value is 9.33.

**Q.** What about the “sequence context of GC→AT mutations” value (mouse genome; liver of Mgmt−/− mice) of the same compound?
**A.** Its value is 5’-PuGN-3’.

**Q.** What about the dominant single-base substitution (mouse genome; liver of Mgmt−/− mice, 10 weeks post NDMA) of the same compound?
**A.** The dominant single-base substitution was “GC→AT mutations”.

**Q.** What about the “cosine similarity of mutational patterns in Mgmt−/− and WT mice” value (mouse genome; liver, baseline-corrected, normalized spectra) of the same compound?
**A.** The value was 0.98.
